biological target: T1, human GPR17 receptor (Homo sapiens, UniProt Q13304); assay: Calcium mobilization functional assay (Fluo-8, FLIPR TETRA) in HEK-293 hGPR17 (Gα-q assay); type: cell-based; details: antagonism of MDL29,951 (~EC80) induced Ca2+ signal; cell line (HEK-293 hGPR17 or HEK-293 Suchi5 hGPR17) not given
T1 construct: host or cells: HEK-293
Method in brief: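 Fluo-8-loaded HEK-293 hGPR17 cells (60 min dye loading, room temperature) were preincubated with compound for twenty minutes, then challenged with agonist MDL29,951 at ~EC80, 500 nM. Intracellular calcium release via Gα-q was recorded as FLIPR fluorescence for a further 2 minutes; compounds tested in duplicate.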

T1 sequence (Q13304 whole entry): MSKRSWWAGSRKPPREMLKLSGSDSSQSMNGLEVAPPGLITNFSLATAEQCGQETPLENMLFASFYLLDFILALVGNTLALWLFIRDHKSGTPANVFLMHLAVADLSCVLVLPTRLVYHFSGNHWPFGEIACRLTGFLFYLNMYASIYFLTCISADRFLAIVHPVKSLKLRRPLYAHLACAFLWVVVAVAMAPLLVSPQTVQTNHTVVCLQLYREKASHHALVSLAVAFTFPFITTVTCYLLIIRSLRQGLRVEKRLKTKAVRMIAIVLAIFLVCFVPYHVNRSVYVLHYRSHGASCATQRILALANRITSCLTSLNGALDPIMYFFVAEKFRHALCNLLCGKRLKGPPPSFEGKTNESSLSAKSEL

`N#Cc1ccc(NS(=O)(=O)c2c[nH]cc2Cc2cccc(C(F)(F)F)c2)c(F)c1` [Cpd 307, N-(4-cyano-2-fluoro-phenyl)-4-[[3-(trifluoromethyl)phenyl]methyl]-1H-pyrrole-3-sulfonamide] and `N#Cc1ccc(NS(=O)(=O)c2c[nH]cc2Cc2cccc(OC(F)(F)F)c2)c(F)c1` [Cpd 308, N-(4-cyano-2-fluoro-phenyl)-4-[[3-(trifluoromethoxy)phenyl]methyl]-1H-pyrrole-3-sulfonamide] fall in the same range of IC50: 0.5 to 5 µM for the first, 0.5 to 5 µM for the second.

First: N#Cc1ccc(NS(=O)(=O)c2c[nH]cc2Cc2cccc(OC(F)F)c2)c(F)c1 [Cpd 309, N-(4-cyano-2-fluoro-phenyl)-4-[[3-(difluoromethoxy)phenyl]methyl]-1H-pyrrole-3-sulfonamide]
Second: COc1ccc(F)cc1-c1cc(S(=O)(=O)Nc2ccc(C#N)cc2F)c[nH]1 [Cpd 314, N-(4-cyano-2-fluoro-phenyl)-5-(5-fluoro-2-methoxy-phenyl)-1H-pyrrole-3-sulfonamide]
The IC50 of the first is lower: less than 0.5 µM for the first, 0.5 to 5 µM for the second. The first is the more potent here.

First: N#Cc1ccc(NS(=O)(=O)c2c[nH]c(-c3ncccc3C(F)(F)F)c2)c(F)c1 [Cpd 310, N-(4-cyano-2-fluoro-phenyl)-5-[3-(trifluoromethyl)-2-pyridyl]-1H-pyrrole-3-sulfonamide]
Second: N#Cc1cccc(-c2cc(S(=O)(=O)Nc3cc(F)c(C(F)(F)F)cc3F)c[nH]2)c1 [Cpd 318, 5-(3-cyanophenyl)-N-[2,5-difluoro-4-(trifluoromethyl)phenyl]-1H-pyrrole-3-sulfonamide]
The IC50 of the first is higher: 0.5 to 5 µM for the first, less than 0.5 µM for the second. The second is the more potent here.

`O=S(=O)(Nc1cc(F)c(OC2CC2)cc1F)c1c[nH]c(-c2ccccn2)c1` [Cpd 311, N-[4-(cyclopropoxy)-2,5-difluoro-phenyl]-5-(2-pyridyl)-1H-pyrrole-3-sulfonamide] and `N#Cc1ccc(NS(=O)(=O)c2c[nH]c(-c3ccccn3)c2)c(F)c1F` [Cpd 322, N-(4-cyano-2,3-difluoro-phenyl)-5-(2-pyridyl)-1H-pyrrole-3-sulfonamide] fall in the same range of IC50: 0.5 to 5 µM for the first, 0.5 to 5 µM for the second.

`N#Cc1ccc(NS(=O)(=O)c2c[nH]c(-c3ccccc3)c2)c(F)c1Cl` [Cpd 312, N-(3-chloro-4-cyano-2-fluoro-phenyl)-5-phenyl-1H-pyrrole-3-sulfonamide] and `N#Cc1ccc(NS(=O)(=O)c2c[nH]c(-c3ccccc3)c2)c(F)c1F` [Cpd 317, N-(4-cyano-2,3-difluoro-phenyl)-5-phenyl-1H-pyrrole-3-sulfonamide] fall in the same range of IC50: 0.5 to 5 µM for the first, 0.5 to 5 µM for the second.

`O=S(=O)(Nc1ccc(C(F)(F)F)cc1F)c1c[nH]c(-c2ccccc2)c1` [Cpd 313, N-[2-fluoro-4-(trifluoromethyl)phenyl]-5-phenyl-1H-pyrrole-3-sulfonamide] and `O=S(=O)(Nc1c(F)cc(C(F)(F)F)cc1F)c1c[nH]c(-c2ccccc2)c1` [Cpd 328, N-[2,6-difluoro-4-(trifluoromethyl)phenyl]-5-phenyl-1H-pyrrole-3-sulfonamide] fall in the same range of IC50: 0.5 to 5 µM for the first, 0.5 to 5 µM for the second.

`Cc1ccc(F)c(-c2cc(S(=O)(=O)Nc3cc(F)c(C(F)(F)F)cc3F)c[nH]2)c1` [Cpd 315, N-[2,5-difluoro-4-(trifluoromethyl)phenyl]-5-(2-fluoro-5-methyl-phenyl)-1H-pyrrole-3-sulfonamide] and `O=S(=O)(Nc1cc(F)c(C(F)(F)F)cc1F)c1c[nH]c(-c2cc(Cl)ccc2F)c1` [Cpd 320, 5-(5-chloro-2-fluoro-phenyl)-N-[2,5-difluoro-4-(trifluoromethyl)phenyl]-1H-pyrrole-3-sulfonamide] fall in the same range of IC50: 0.5 to 5 µM for the first, 0.5 to 5 µM for the second.

`N#Cc1ccc(NS(=O)(=O)c2c[nH]c(-c3cc(F)cc(Cl)c3)c2)c(F)c1` [Cpd 316, 5-(3-chloro-5-fluoro-phenyl)-N-(4-cyano-2-fluoro-phenyl)-1H-pyrrole-3-sulfonamide] and `Cc1ccc(-c2cc(S(=O)(=O)Nc3ccc(C#N)cc3F)c[nH]2)c(C)c1` [Cpd 329, N-(4-cyano-2-fluoro-phenyl)-5-(2,4-dimethylphenyl)-1H-pyrrole-3-sulfonamide] fall in the same range of IC50: 0.5 to 5 µM for the first, 0.5 to 5 µM for the second.

`Cc1cccc(-c2cc(S(=O)(=O)Nc3cc(F)c(C(F)(F)F)cc3F)c[nH]2)c1F` [Cpd 319, N-[2,5-difluoro-4-(trifluoromethyl)phenyl]-5-(2-fluoro-3-methyl-phenyl)-1H-pyrrole-3-sulfonamide] and `O=S(=O)(Nc1cc(F)c(C(F)(F)F)cc1F)c1c[nH]c(-c2cccc(Cl)c2F)c1` [Cpd 327, 5-(3-chloro-2-fluoro-phenyl)-N-[2,5-difluoro-4-(trifluoromethyl)phenyl]-1H-pyrrole-3-sulfonamide] fall in the same range of IC50: 0.5 to 5 µM for the first, 0.5 to 5 µM for the second.

`Cc1cccc(F)c1-c1cc(S(=O)(=O)Nc2cc(F)c(C(F)(F)F)cc2F)c[nH]1` [Cpd 321, N-[2,5-difluoro-4-(trifluoromethyl)phenyl]-5-(2-fluoro-6-methyl-phenyl)-1H-pyrrole-3-sulfonamide] and `COc1cccc(-c2cc(S(=O)(=O)Nc3cc(F)c(C(F)(F)F)cc3F)c[nH]2)c1F` [Cpd 325, N-[2,5-difluoro-4-(trifluoromethyl)phenyl]-5-(2-fluoro-3-methoxy-phenyl)-1H-pyrrole-3-sulfonamide] fall in the same range of IC50: 0.5 to 5 µM for the first, 0.5 to 5 µM for the second.

First: COc1cccc(-c2cc(S(=O)(=O)Nc3cc(F)c(C(F)(F)F)cc3F)c[nH]2)c1 [Cpd 323, N-[2,5-difluoro-4-(trifluoromethyl)phenyl]-5-(3-methoxyphenyl)-1H-pyrrole-3-sulfonamide]
Second: COc1ccc(-c2cc(S(=O)(=O)Nc3cc(F)c(C(F)(F)F)cc3F)c[nH]2)c(F)c1 [Cpd 324, N-[2,5-difluoro-4-(trifluoromethyl)phenyl]-5-(2-fluoro-4-methoxy-phenyl)-1H-pyrrole-3-sulfonamide]
The IC50 of the first is lower: 0.5 to 5 µM for the first, 5 to 50 µM for the second.

`Cc1cc(NS(=O)(=O)c2c[nH]c(-c3ccccc3)c2)c(F)cc1C#N` [Cpd 326, N-(4-cyano-2-fluoro-5-methyl-phenyl)-5-phenyl-1H-pyrrole-3-sulfonamide] and `N#Cc1cc(F)c(NS(=O)(=O)c2c[nH]c(-c3ccccc3)c2)cc1Cl` [Cpd 333, N-(5-chloro-4-cyano-2-fluoro-phenyl)-5-phenyl-1H-pyrrole-3-sulfonamide] cannot be ordered by IC50: less than 0.5 µM for the first, less than 0.5 µM for the second.

First: N#Cc1ccc(-c2cc(S(=O)(=O)Nc3cc(F)c(C(F)(F)F)cc3F)c[nH]2)cc1 [Cpd 330, 5-(4-cyanophenyl)-N-[2,5-difluoro-4-(trifluoromethyl)phenyl]-1H-pyrrole-3-sulfonamide]
Second: O=S(=O)(Nc1ccc(C(F)(F)F)c(F)c1F)c1c[nH]c(-c2ccccc2)c1 [Cpd 334, N-[2,3-difluoro-4-(trifluoromethyl)phenyl]-5-phenyl-1H-pyrrole-3-sulfonamide]
The IC50 of the first is higher: 5 to 50 µM for the first, 0.5 to 5 µM for the second. The second is the more potent here.

First: Cc1ccc(C)c(-c2cc(S(=O)(=O)Nc3ccc(C#N)cc3F)c[nH]2)c1 [Cpd 331, N-(4-cyano-2-fluoro-phenyl)-5-(2,5-dimethylphenyl)-1H-pyrrole-3-sulfonamide]
Second: O=S(=O)(Nc1ccc(C(F)(F)F)c(F)c1F)c1c[nH]c(-c2ccccn2)c1 [Cpd 332, N-[2,3-difluoro-4-(trifluoromethyl)phenyl]-5-(2-pyridyl)-1H-pyrrole-3-sulfonamide]
The IC50 of the first is lower: less than 0.5 µM for the first, 0.5 to 5 µM for the second.

`O=S(=O)(Nc1ccc(C(F)(F)F)c(Cl)c1F)c1c[nH]c(-c2ccccn2)c1` [Cpd 335, N-[3-chloro-2-fluoro-4-(trifluoromethyl)phenyl]-5-(2-pyridyl)-1H-pyrrole-3-sulfonamide] gave an IC50 of 5 to 50 µM.
